Test results as given in US7033618B2, “Methods of administering gaultherin-containing compositions” (Rutgers University, The State University of New Jersey, priority 1999, dated 2006).

Legend:
[1] = Rat hind paw inflammatory (edema and hyperalgesia) model, Freund's adjuvant; format: in vivo, Sprague-Dawley rats
Experimental: Wintergreen-derived gaultherin-containing extract was administered by per-oral gavage at human dose equivalents of 200 mg and 400 mg per day and Naproxen was administered at a dose of 440 mg per day. Male Sprague-Dawley rats (300–350 grams) were treated for 5 days by gavage. Inflammation (edema and hyperalgesia) was induced 3 days prior to treatment through intraplantar injection of Freund's adjuvant (containing 170 μg Mycobacterium butyricum). Edema was determined by physical measurements of paw thickness and ankle width. Pain tolerance (i.e., pain reduction) was mechanically assessed via digital Von Frey determinations using a series of measurements at 6 locations on the surface of a paw. [Ren et al., ILAR Journal, 40(3):1–12 (1999), Kayser et al., Pain, 28:99–107 (1987)] Measurement terminated at the point of paw withdrawal, auditable indication of discomfort, or animal shuddering. Measurements were performed on left and right paws.

[2] = Gastric irritation in fasted rats; format: in vivo, Wistar rats; conditions: oral gavage, overnight-fasted rats, 4 h after treatment, extract 5000 mg/kg; for Gastric irritation Total Score: total for three rats (0-4 each), aspirin 150 mg/kg (equal total salicylate)
Experimental: Wintergreen-derived, gaultherin-containing extract and aspirin were given by oral gavage to overnight-fasted Wistar rats (200+/−20 g). The 5000 mg/kg dose of wintergreen extract and the 150 mg/kg dose of aspirin used in the experiment contain equal total amounts of salicylate. Four hours after treatment, the stomach lining was harvested and scored for gastric irritation [Guth et al., Gastroenterology, 76: 88–93 (1979)]. A score of zero was given for no sign of hyperaemia (excess blood or engorgement with blood) or bleeding. A score of one was given when hyperaemia was evident. A score of two was given when some spot bleeding was observed. A score of three was assigned for any hyperaemia and spot bleeding and a score of four for hyperaemia and spot bleeding occurred over the entire stomach. The total aspirin score for three rats was nine as all three rats experienced some hyperaemia and spot bleeding. The total wintergreen-derived, gaultherin-containing extract score was two because only two of the three rats were noted to have some hyperaemia. Based on these responses, the gastric irritation caused by wintergreen extract was substantially less (approximately five times lower) than that caused by aspirin.

[3] = system: platelet aggregation in vivo (bleeding time in mouse tail tips); experiment: In vivo bleeding time in mouse tail tips; parameters: species or system mice; conditions: oral, pretreatment time 1 h, Aspirin 100 mg/kg
Experimental: Wintergreen-derived gaultherin containing extracts were also shown to inhibit platelet aggregation in vivo. […] The gaultherin-containing extract prolonged mouse bleeding times assessed at 1, 3, and 6 hours after treatment. Therefore, gaultherin-containing extracts prevent platelet aggregation in vitro and in vivo. In vivo assay: The gaultherin-containing extract was mixed with vehicle (2% Tween 80/distilled water) and orally administered to 5 ICR […] (22+2 g) at the doses given in Table V. After 1, 3, or 6 hours of treatment, the mice were suspended in holders and 0.5 mm of the tip of each tail was transected and immersed in a test tube containing saline at 37° C. The bleeding time is defined as the time required for the bleeding to cease for a period of greater than 15 seconds. Prolongation of the bleeding time over that of control animals was then calculated. Aspirin was used as the standard to ensure that the assay was performing as expected.

## COC(=O)c1ccccc1O[C@@H]1O[C@H](CO[C@@H]2OC[C@@H](O)[C@H](O)[C@H]2O)[C@@H](O)[C@H](O)[C@H]1O [Gaultherin, gaultherin]
[1]; 200 mg/day (human dose equivalent) for 5 days, per-oral gavage
  Edema reduction: 12.2%
[1]; 400 mg/day (human dose equivalent) for 5 days, per-oral gavage
  Edema reduction: 16.9%
[1]; human dose equivalent of 200 mg per day, 5 days, gavage
  improvement in pain tolerance (digital Von Frey): 6.7%
[1]; human dose equivalent of 400 mg per day, 5 days, gavage
  improvement in pain tolerance (digital Von Frey): 9.9%

## CC(=O)Oc1ccccc1C(=O)O [Aspirin, acetylsalicylic acid]
[2]
  Gastric irritation Total Score: 9
[2]; listed as aspirin
  Gastric irritation Total Score: nine
[2]; aspirin 150 mg/kg
  Gastric irritation Response: 100%
[3]
  Avg. Bleed Time, Exp. 2: 114 s
[3]; W. Extract 5000 mg/kg
  Avg. Bleed Time, Exp. 1: 120 s
[3]; W. Extract 5000 mg/kg, over control animals
  Prolongation of bleeding time, Exp. 1: 100%
[3]; over control animals
  Prolongation of bleeding time, Exp. 2: 73%

## COc1ccc2cc([C@H](C)C(=O)O)ccc2c1 [Naproxen]
[1]; 440 mg per day, 5 days, gavage
  anti-inflammatory and analgesic effect: predictable anti-inflammatory and analgesic effect
[1]; 440 mg/day for 5 days, gavage
  Edema reduction: 28%
